Where two headings read alike, the source gives them in different places.
Columns and labels:
CCR2 = target: T1, CCR2 (Homo sapiens, UniProt P41597); test: MCP-1 Receptor Binding Assay in THP-1 Cells; conditions: for IC50: THP-1 cells, 0.5 nM 125I labeled MCP-1, 2 hours at 30° C., read-out: Inhibition of MCP-1 Binding IC50
T1 construct: host or cells: THP-1 cells
T1 sequence (P41597 1-360 isoform P41597-2): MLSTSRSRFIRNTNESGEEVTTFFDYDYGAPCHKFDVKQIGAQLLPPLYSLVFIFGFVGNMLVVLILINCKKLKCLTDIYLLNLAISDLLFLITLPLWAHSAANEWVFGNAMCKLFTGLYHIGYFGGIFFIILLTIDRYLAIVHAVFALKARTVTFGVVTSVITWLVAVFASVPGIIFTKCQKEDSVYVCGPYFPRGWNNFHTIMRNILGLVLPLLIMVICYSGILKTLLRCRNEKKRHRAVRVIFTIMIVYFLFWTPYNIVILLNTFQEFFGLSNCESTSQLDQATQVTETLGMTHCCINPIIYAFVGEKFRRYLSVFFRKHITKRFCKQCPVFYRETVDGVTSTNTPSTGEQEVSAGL
How it was run: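 Whole THP-1 cells incubated 2 h at 30° C with 0.5 nM 125I-MCP-1 and varying compound concentrations; bound radioactivity harvested on filters and counted by scintillation. Nonspecific binding with 1 μM cold MCP-1; IC50 for inhibition of binding versus vehicle.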

[1] = test system: MCP-1 induced calcium ion influx in THP-1 cells; test: MCP-1 Induced Calcium Mobilization in THP-1 Cells; type: cell-based; conditions: for inhibition at 25 µM: THP-1, test concentration of 25 μM, given where an IC50 value was not obtained, read-out: Inhibition of MCP-1 Induced Calcium Ion Influx, percent inhibition; for IC50: 0.2 μM MCP-1, FLIPR, read-out: Inhibition of MCP-1 Induced Calcium Ion Influx IC50
Description: THP-1 cells were plated at a density of 8×10^5 cells/mL (100 μL/well) into poly-D lysine coated clear bottom, black 96 well plates. The cells were loaded with 5 μM fluo-3 for 45 minutes. The fluo-3 washed off and cells were incubated with varying concentrations of test compound for 15 minutes. The change in calcium ion concentration upon addition of 0.2 μM MCP-1 was determined using FLIPR and compared to vehicle.
Table 2 lists IC50 values for inhibition of MCP-1 induced influx of calcium ions.

[2] = Homo sapiens, THP-1, THP-1 cells

IC50 (CCR2) [nM]	IC50 [1, 2] [nM]	IC50 ([1]; THP-1 cells) [nM]	inhibition at 25 µM (CCR2; test concentration of 25 μM, given where an IC50 value was not obtained, read-out: Inhibition of MCP-1 Binding, percent inhibition) [%]	SMILES	inhibition at 25 µM ([1]; Homo sapiens) [%]
9400				Cc1ccc2[nH]cc(C3CCN(CC(O)C4(O)CCN(c5nccc(C(F)(F)F)n5)CC4)CC3)c2c1 (stereo not shown) [Compound 123, 4-{1-hydroxy-2-[4-(5-methyl-1H-indol-3-yl)-piperidin-1-yl]-ethyl}-1-(4-trifluoromethyl-pyrimidin-2-yl)-piperidin-4-ol]	68
180	380			O=C(/C=C/c1ccc(Cl)c(Cl)c1)N1CCC(O)(C(O)CN2CCC(c3ccc(F)cc3)CC2)CC1 (stereo not shown) [Compound 131]	
8300				N#Cc1ccc2[nH]cc(C3CCN(CC(O)C4(O)CCN(c5nccc(C(F)(F)F)n5)CC4)CC3)c2c1 (stereo not shown) [Compound 124, 3-(1-{2-hydroxy-2-[4-hydroxy-1-(4-trifluoromethyl-pyrimidin-2-yl)-piperidin-4-yl]-ethyl}-piperidin-4-yl)-1H-indole-5-carbonitrile]	43
2200	3700			COc1ccc(C2CCN(CC(CO)C3CCN(C(=O)/C=C/c4cccc(C)c4)CC3)CC2)cc1 (stereo not shown) [Compound 42]	
1900				OC(CN1CCC(c2c[nH]c3ccccc23)CC1)C1(O)CCN(c2nccc(C(F)(F)F)n2)CC1 (stereo not shown) [Compound 120, 4-{1-hydroxy-2-[4-(1H-indol-3-yl)-piperidin-1-yl]-ethyl}-1-(4-trifluoromethyl-pyrimidin-2-yl)-piperidin-4-ol]	13
730	9200			OC(CN1CCC(c2ccc(F)cc2)CC1)C1(O)CCN(C(=S)Nc2ccc(Cl)c(Cl)c2)CC1 (stereo not shown) [Compound 135, 4-{2-[4-(4-fluoro-phenyl)-piperidin-1-yl]-1-hydroxy-ethyl}-4-hydroxy-piperidine-1-carbothioic acid (3,4-dichloro-phenyl)-amide]	
210		480		COc1ccc(C2CCN(CC(O)C3CCN(C(=S)Nc4ccc(Cl)c(Cl)c4)CC3)CC2)cc1 (stereo not shown) [Compound 108, 4-{1-hydroxy-2-[4-(4-methoxy-phenyl)-piperidin-1-yl]-ethyl}-piperidine-1-carbothioic acid (3,4-dichloro-phenyl)-amide]	
500	85			O=C(/C=C/c1cccc(C(F)(F)F)c1)N1CCC(O)(C(O)CN2CCC(c3c[nH]c4ccccc34)CC2)CC1 (stereo not shown) [Compound 77]	
3200				Cc1cccc(/C=C/C(=O)N2CCC(O)(C(O)CN3CCC(c4c[nH]c5ccc(N6CCOCC6)cc45)CC3)CC2)c1 (stereo not shown) [Compound 174]	44
760	2600			COc1ccc(C2CCN(CC(O)C3CCN(C(=S)Nc4ccc(C(F)(F)F)cc4)CC3)CC2)cc1 (stereo not shown) [Compound 106, 4-{1-hydroxy-2-[4-(4-methoxy-phenyl)-piperidin-1-yl]-ethyl}-piperidine-1-carbothioic acid (4-trifluoromethyl-phenyl)-amide]	
530	840			COc1ccc(C2CCN(CC(O)C3(O)CCN(C(=O)Nc4ccc(Cl)c(Cl)c4)CC3)CC2)cc1 (stereo not shown) [Compound 116, 4-hydroxy-4-{1-hydroxy-2-[4-(4-methoxy-phenyl)-piperidin-1-yl]-ethyl}-piperidine-1-carboxylic acid (3,4-dichloro-phenyl)-amide]	
840	3600			O=C(CCc1ccc(Cl)cc1)N1CCC(O)(C(O)CN2CCC(c3c[nH]c4ccc(F)cc34)CC2)CC1 (stereo not shown) [Compound 160, 3-(4-chloro-phenyl)-1-(4-{2-[4-(5-fluoro-1H-indol-3-yl)-piperidin-1-yl]-1-hydroxy-ethyl}-4-hydroxy-piperidine-1-yl)-propan-1-one]	
			61	CC(=O)Nc1ccc2[nH]cc(C3CCN(CC(O)C4CCN(C(=O)OCc5ccccc5)CC4)CC3)c2c1 (stereo not shown) [Compound 184, 4-{2-[4-(5-acetylamino-1H-indol-3-yl)-piperidin-1-yl]-1-hydroxy-ethyl}-piperidine-1-carboxylic acid benzyl ester]	13
730	1500			O=C(/C=C/c1ccc(F)c(Br)c1)N1CCC(O)(C(O)CN2CCC(c3c[nH]c4ccc(F)cc34)CC2)CC1 (stereo not shown) [Compound 159]	
